Source: patent US9645147B2, “Recombinant polypeptide construct comprising Plasmodium falciparum circumsporozoite protein HLA class I restricted T-cell epitopes” (priority 2013, dated 2017)
Entries after “also recorded” stand apart in the source; their conditions may differ. Peptide text beside a SMILES is read from it.

Columns and labels:
Assay type in all cases: cell-based, human
[1] = test system: PBMC depleted of T-cell subsets; experiment: ELISpot IFN-γ after T-cell subset depletion (CD4+ or CD8+ Dynabeads, mock control); conditions: for confirmation as recalling CD8+ T cell responses: ELISpot depletion and ICS studies; for CD4+ depl. sfc/m: after CD4+ T cell depletion; for CD4+ depl. (%) percent change in ELISpot activity: after CD4+ T cell depletion vs control depletion; for CD8+ depl. sfc/m: after CD8+ T cell depletion; for CD8+ depl. (%) percent change in ELISpot activity: after CD8+ T cell depletion vs control depletion; for Control dept. sfc/m: mock (control) depletion; for percent reduction of ELISpot response after CD8+ T cell depletion: text summary over the four volunteers of Table 6
Description: For characterization of ELISpot IFN-γ-producing cells by T-cell subset depletions PBMC were depleted of T-cell subsets using anti-human CD4+ or anti-CD8+ coated Dynabeads M-450 (Dynal, Great Neck, N.Y.) following the manufacturer's instructions. Mock depletion was done with Dynabeads coated with sheep anti-mouse IgG. Flow cytometry confirmed that T-cell subset depletions were >99% in all experiments. Data are presented as the spot-forming cells/million (sfc/m) and percent decrease or increase in activity after depletion.
To further evaluate the predicted epitopes, ELISpot depletion assays were performed using PBMC from four volunteers stimulated with six predicted and tested epitopes. CD8+ T cell depletion reduced responses to Cp1 and Cp9 by 82%100%.

CD8+ T cells = experiment: Intracellular cytokine staining (ICS), IFN-γ, CD8+ population; conditions: for ICS CD8+ T cell recall responses (in words): ICS assays, volunteers of Table 6; for CD8+ % (per cent of CD8+ T cells expressing IFN-γ): ICS, positive >0.03%
Procedure: (§1) Intracellular cytokine staining (ICS) was performed as published previously (Stewart, et al, Infect. Immun., 75: 2283-90 (2007)). Cryopreserved PBMC were thawed, washed, and resuspended at 10×10^6 cells per mL in complete medium. Peptides were used at 10 μg/mL and costimulatory antibodies anti-CD28 and […] (BD Bioscience, San Jose, Calif.) were used at 1 μg/mL. Stimulants were added to cells and incubated at 37° C. with 5% CO2 for 2 hours. Cells were stained with anti-CD3, anti-CD4, anti-CD8, anti-IFN-γ, anti-TNFα, and anti-IL2 and the entire available sample was acquired on a BD LSRII using FACSDiVa (BD Bioscience) software. Data were analyzed using FlowJo Software (Treestar, Inc.). The gating strategy involved progressively measuring total cells; viable cells; lymphocytes; T cells; CD4+ or CD8+ populations; and finally a specific cell type expressing a specific cytokine. Results were transferred to Prism (GraphPad) for graphing and statistical analysis. Data for peptides were corrected for media responses. A positive response was greater than the medium controls+3 standard deviations (0.03%).

[2] = test system: PBMC from volunteers immunized with Ad-CA or Ad-C; experiment: IFN-γ ELISpot assay with cryopreserved PBMC of immunized volunteers; conditions: for Epitope sfc/m: Table 4; for ELISpot response to synthesized epitope (in words): volunteers, positive = p<0.05, at least doubling and at least ten sfc over negative control
Procedure: Previous studies have confirmed that recall-T cell responses, as assayed by ELISpot, are detected using cryopreserved PBMCs although such responses are generally of a lower magnitude than fresh cells (Sedegah, et al., Malar J., 9: 241 (2011)).
The positive control was commercially obtained Class I Peptide Pool Plus (Anaspec, USA). Negative control was media with all supplements but no antigen-specific stimulant.
Throughout the studies, IFN-γ ELISpot assays were conducted as previously described (Sedegah, et al., Malar J., 9: 241 (2011); Wang, et al., PNAS (USA), 98: 10817-22 (2001)). Cryopreserved PBMC were suspended in 100 μL complete medium and stimulated with CSP peptides in 100 μL of complete medium at a final concentration of 10 μg/mL of each peptide tested (Wang, et al., PNAS (USA), 98: 10817-22 (2001)).
Cultures were incubated for 36 hours at 37° C., 5% CO2. Depending on availability of cells, each PBMC sample was assayed in duplicate, triplicate, or quadruplicate and the number of IFN-γ-secreting spot forming cells (sfc) was counted using an automated ELISpot reader (AID, GmbH, Germany). In duplicate assays, all values were used in analysis. […] The mean number of sfcs obtained in negative control wells was subtracted from the value of each test well from the same sample. Negative counts generated by this background subtraction were converted to zero. The mean number of spots of the test sample was then calculated and expressed as spot forming cells/million (sfc/m). A positive response was defined as a significant difference (p=<0.05) between average of the number of spot forming cells (sfc) in test wells and the average of negative control wells (Student's two tailed t-test), and at least a doubling of sfc in test wells relative to negative control wells, and a difference of at least ten sfc between test and negative control wells (Sedegah, et al., PLoS One, 6: e24586 (2011)).

CD4+ T cells = experiment: Intracellular cytokine staining (ICS), IFN-γ, CD4+ population; conditions: for ICS CD4+ T cell recall responses (in words): ICS assays, volunteers of Table 6; for CD4+ % (per cent of CD4+ T cells expressing IFN-γ): ICS, positive >0.03%
Procedure: as §1

[3] = volunteer 40 (Ad-C), synthesized epitope, first of two assays
[4] = volunteer 40 (Ad-C), synthesized epitope, second assay (second value of the cell)
[5] = volunteer 37 (Ad-C), synthesized epitope, second assay (second value of the cell)
[6] = volunteer 37 (Ad-C), synthesized epitope, single value or first of two assays

## VFNVVNSSI [Epitope E13a]
[1]
  confirmation as recalling CD8+ T cell responses: confirmed as recalling CD8+ T cell responses
  percent reduction of ELISpot response after CD8+ T cell depletion: 56%
[1]; V40
  CD4+ depl. sfc/m: 43 sfc/m
  CD4+ depl. (%) percent change in ELISpot activity: −50%
  CD8+ depl. sfc/m: 38 sfc/m
  CD8+ depl. (%) percent change in ELISpot activity: −56%
  Control dept. sfc/m: 86 sfc/m
CD8+ T cells
  ICS CD8+ T cell recall responses (in words): positive
CD8+ T cells; V40
  CD8+ % (per cent of CD8+ T cells expressing IFN-γ): 0.12%
[2]; [3]
  Epitope sfc/m: 104 sfc/m
[2]; [4]
  Epitope sfc/m: 72 sfc/m
[2]
  ELISpot response to synthesized epitope (in words): demonstrated activity
CD4+ T cells
  ICS CD4+ T cell recall responses (in words): negative
CD4+ T cells; V40
  CD4+ % (per cent of CD4+ T cells expressing IFN-γ): 0.01%

## CC[C@H](C)[C@H](NC(=O)[C@@H](N)CC(C)C)C(=O)N[C@@H](CCSC)C(=O)N[C@H](C(=O)N[C@@H](CC(C)C)C(=O)N[C@@H](CO)C(=O)N[C@@H](Cc1ccccc1)C(=O)N[C@@H](CC(C)C)C(=O)N[C@@H](Cc1ccccc1)C(=O)O)C(C)C [Epitope E17a] (H-LIMVLSFLF-OH; N-terminus and C-terminus assumed)
[1]
  confirmation as recalling CD8+ T cell responses: confirmed as recalling CD8+ T cell responses
[1]; V40
  CD4+ depl. sfc/m: 210 sfc/m
  CD4+ depl. (%) percent change in ELISpot activity: −11%
  CD8+ depl. sfc/m: 23 sfc/m
  CD8+ depl. (%) percent change in ELISpot activity: −90%
  Control dept. sfc/m: 236 sfc/m
[1]; V156
  CD4+ depl. sfc/m: 264 sfc/m
  CD4+ depl. (%) percent change in ELISpot activity: −18%
  CD8+ depl. sfc/m: 85 sfc/m
  CD8+ depl. (%) percent change in ELISpot activity: −82%
  Control dept. sfc/m: 307 sfc/m
CD8+ T cells
  ICS CD8+ T cell recall responses (in words): positive
CD8+ T cells; V40
  CD8+ % (per cent of CD8+ T cells expressing IFN-γ): 0.54%
CD8+ T cells; V156
  CD8+ % (per cent of CD8+ T cells expressing IFN-γ): 0.26%
[2]; [5]
  Epitope sfc/m: 38 sfc/m
[2]; [6]
  Epitope sfc/m: 55 sfc/m
[2]; [3]
  Epitope sfc/m: 290 sfc/m
[2]; [4]
  Epitope sfc/m: 166 sfc/m
[2]
  ELISpot response to synthesized epitope (in words): recognized; also recorded: positive; also recorded: demonstrated activity
CD4+ T cells
  ICS CD4+ T cell recall responses (in words): negative
CD4+ T cells; V40
  CD4+ % (per cent of CD4+ T cells expressing IFN-γ): 0.02%
CD4+ T cells; V156
  CD4+ % (per cent of CD4+ T cells expressing IFN-γ): 0.01%

## CC(C)C[C@H](NC(=O)[C@H](C)NC(=O)[C@H](CCC(=O)O)NC(=O)[C@@H](NC(=O)[C@H](Cc1ccccc1)NC(=O)[C@H](CC(C)C)NC(=O)[C@H](Cc1ccccc1)NC(=O)[C@@H](N)CO)C(C)C)C(=O)N[C@@H](Cc1ccccc1)C(=O)O [Epitope E20] (H-SFLFVEALF-OH; N-terminus and C-terminus assumed)
[1]
  confirmation as recalling CD8+ T cell responses: confirmed as recalling CD8+ T cell responses
[1]; V40
  CD4+ depl. sfc/m: 226 sfc/m
  CD4+ depl. (%) percent change in ELISpot activity: −11%
  CD8+ depl. sfc/m: 15 sfc/m
  CD8+ depl. (%) percent change in ELISpot activity: −94%
  Control dept. sfc/m: 254 sfc/m
[1]; V156
  CD4+ depl. sfc/m: 273 sfc/m
  CD4+ depl. (%) percent change in ELISpot activity: +28%
  CD8+ depl. sfc/m: 29 sfc/m
  CD8+ depl. (%) percent change in ELISpot activity: −86%
  Control dept. sfc/m: 213 sfc/m
CD8+ T cells
  ICS CD8+ T cell recall responses (in words): positive
CD8+ T cells; V40
  CD8+ % (per cent of CD8+ T cells expressing IFN-γ): 0.37%
CD8+ T cells; V156
  CD8+ % (per cent of CD8+ T cells expressing IFN-γ): 0.25%
[2]; [5]
  Epitope sfc/m: 53, 53 sfc/m
[2]; [6]
  Epitope sfc/m: 53, 53 sfc/m
[2]; [3]
  Epitope sfc/m: 313 sfc/m
[2]; [4]
  Epitope sfc/m: 197 sfc/m
[2]; volunteer 68 (Ad-C), synthesized 8-10mer epitope
  Epitope sfc/m: 34 sfc/m
[2]; volunteer 156 (Ad-CA), synthesized 8-10mer epitope
  Epitope sfc/m: 240 sfc/m
[2]
  ELISpot response to synthesized epitope (in words): moderately positive; also recorded: demonstrated activity
CD4+ T cells
  ICS CD4+ T cell recall responses (in words): negative
CD4+ T cells; V40
  CD4+ % (per cent of CD4+ T cells expressing IFN-γ): 0.04%
CD4+ T cells; V156
  CD4+ % (per cent of CD4+ T cells expressing IFN-γ): 0.01%

## CC(C)C[C@H](NC(=O)[C@H](C)NC(=O)[C@H](CCC(=O)O)NC(=O)[C@@H](NC(=O)[C@@H](N)Cc1ccccc1)C(C)C)C(=O)N[C@@H](Cc1ccccc1)C(=O)N[C@@H](CCC(N)=O)C(=O)N[C@@H](CCC(=O)O)C(=O)N[C@@H](Cc1ccc(O)cc1)C(=O)O [Epitope E2]
[1]
  confirmation as recalling CD8+ T cell responses: confirmed as recalling CD8+ T cell responses
[1]; V69
  CD4+ depl. sfc/m: 254 sfc/m
  CD4+ depl. (%) percent change in ELISpot activity: −15%
  CD8+ depl. sfc/m: 8 sfc/m
  CD8+ depl. (%) percent change in ELISpot activity: −97%
  Control dept. sfc/m: 296 sfc/m
CD8+ T cells
  ICS CD8+ T cell recall responses (in words): positive
CD8+ T cells; V69
  CD8+ % (per cent of CD8+ T cells expressing IFN-γ): 0.48%
[2]; volunteer 69 (Ad-C), synthesized 8-10mer epitope
  Epitope sfc/m: 268 sfc/m
[2]; volunteer 127 (Ad-CA), synthesized 8-10mer epitope
  Epitope sfc/m: 89 sfc/m
[2]
  ELISpot response to synthesized epitope (in words): active; also recorded: demonstrated activity
CD4+ T cells
  ICS CD4+ T cell recall responses (in words): negative
CD4+ T cells; V69
  CD4+ % (per cent of CD4+ T cells expressing IFN-γ): 0.00%

## SVSSFLFVEA (listed as Plasmodium falciparum) [Epitope E19, CSP aa 9-18]
[1]
  confirmation as recalling CD8+ T cell responses: confirmed as recalling CD8+ T cell responses
  percent reduction of ELISpot response after CD8+ T cell depletion: 9%
[1]; V125
  CD4+ depl. sfc/m: 17 sfc/m
  CD4+ depl. (%) percent change in ELISpot activity: −78%
  CD8+ depl. sfc/m: 72 sfc/m
  CD8+ depl. (%) percent change in ELISpot activity: −9%
  Control dept. sfc/m: 79 sfc/m
CD8+ T cells
  ICS CD8+ T cell recall responses (in words): weakly positive
CD8+ T cells; V125
  CD8+ % (per cent of CD8+ T cells expressing IFN-γ): 0.06%
[2]; volunteer 125 (Ad-CA), synthesized 8-10mer epitope
  Epitope sfc/m: 33 sfc/m
[2]
  ELISpot response to synthesized epitope (in words): moderately active; also recorded: demonstrated activity
CD4+ T cells; V125
  CD4+ % (per cent of CD4+ T cells expressing IFN-γ): 0.02%
